In patent US9051270B2, “Pyridone amides as modulators of sodium channels” (Vertex Pharmaceuticals Incorporated, priority 2013, dated 2015) one finds IC50 data, which are given here for 32 compounds.

pIC50: −log10 of the molar value.

Chain of human Nav1.8 (Q9Y5Y9 whole entry): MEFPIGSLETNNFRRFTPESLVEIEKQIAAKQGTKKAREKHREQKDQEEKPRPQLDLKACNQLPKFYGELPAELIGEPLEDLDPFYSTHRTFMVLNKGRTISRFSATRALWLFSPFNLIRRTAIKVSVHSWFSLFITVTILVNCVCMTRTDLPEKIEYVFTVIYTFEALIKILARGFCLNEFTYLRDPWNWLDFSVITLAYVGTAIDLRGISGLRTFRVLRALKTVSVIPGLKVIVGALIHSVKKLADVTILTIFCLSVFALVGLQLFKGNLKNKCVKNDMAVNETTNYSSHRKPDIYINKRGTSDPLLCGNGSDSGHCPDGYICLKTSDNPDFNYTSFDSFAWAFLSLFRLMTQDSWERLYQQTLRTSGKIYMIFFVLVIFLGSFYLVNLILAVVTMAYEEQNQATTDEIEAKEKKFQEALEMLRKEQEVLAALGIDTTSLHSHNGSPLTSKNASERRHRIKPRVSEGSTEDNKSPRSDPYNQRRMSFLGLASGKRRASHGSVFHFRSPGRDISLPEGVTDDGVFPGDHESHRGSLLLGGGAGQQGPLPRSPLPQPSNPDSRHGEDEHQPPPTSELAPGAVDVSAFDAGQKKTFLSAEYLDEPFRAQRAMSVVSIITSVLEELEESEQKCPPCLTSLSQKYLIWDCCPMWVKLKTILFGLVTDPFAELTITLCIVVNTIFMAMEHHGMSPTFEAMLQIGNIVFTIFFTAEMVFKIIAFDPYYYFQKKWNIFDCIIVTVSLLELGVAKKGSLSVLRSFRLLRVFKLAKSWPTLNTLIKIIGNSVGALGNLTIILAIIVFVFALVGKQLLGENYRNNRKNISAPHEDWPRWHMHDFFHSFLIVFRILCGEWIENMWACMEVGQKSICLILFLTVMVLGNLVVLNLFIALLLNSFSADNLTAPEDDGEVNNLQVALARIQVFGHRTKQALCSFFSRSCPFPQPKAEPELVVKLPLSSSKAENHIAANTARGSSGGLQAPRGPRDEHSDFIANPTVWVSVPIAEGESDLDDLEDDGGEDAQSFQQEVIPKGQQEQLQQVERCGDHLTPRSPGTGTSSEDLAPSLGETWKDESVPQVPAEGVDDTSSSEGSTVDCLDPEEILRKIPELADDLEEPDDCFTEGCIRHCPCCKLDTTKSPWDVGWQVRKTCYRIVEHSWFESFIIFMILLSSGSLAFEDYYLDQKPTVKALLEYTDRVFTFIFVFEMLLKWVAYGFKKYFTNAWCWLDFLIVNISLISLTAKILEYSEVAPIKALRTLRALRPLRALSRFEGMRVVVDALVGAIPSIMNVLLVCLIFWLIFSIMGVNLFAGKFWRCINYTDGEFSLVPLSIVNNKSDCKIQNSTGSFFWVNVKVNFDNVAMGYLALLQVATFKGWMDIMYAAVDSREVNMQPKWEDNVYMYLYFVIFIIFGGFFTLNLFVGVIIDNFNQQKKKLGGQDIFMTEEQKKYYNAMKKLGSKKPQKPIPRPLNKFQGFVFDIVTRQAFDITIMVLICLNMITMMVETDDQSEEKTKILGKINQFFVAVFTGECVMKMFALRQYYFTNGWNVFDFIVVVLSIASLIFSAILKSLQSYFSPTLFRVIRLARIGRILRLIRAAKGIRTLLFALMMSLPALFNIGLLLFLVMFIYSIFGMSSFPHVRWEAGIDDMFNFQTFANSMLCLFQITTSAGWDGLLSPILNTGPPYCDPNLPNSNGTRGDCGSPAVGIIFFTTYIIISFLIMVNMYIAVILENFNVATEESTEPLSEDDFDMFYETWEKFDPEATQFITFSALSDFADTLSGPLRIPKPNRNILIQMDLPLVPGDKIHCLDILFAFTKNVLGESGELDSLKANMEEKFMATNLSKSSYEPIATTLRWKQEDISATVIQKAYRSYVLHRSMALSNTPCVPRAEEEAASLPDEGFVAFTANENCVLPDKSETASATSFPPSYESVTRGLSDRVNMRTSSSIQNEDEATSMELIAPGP

The test addresses human Nav1.8 (Homo sapiens (Human), UniProt Q9Y5Y9). The experiment in a line: E-VIPR optical membrane potential assay with electrical stimulation. Conditions: HEK cells expressing human Nav1.8. The format is cell-based. The text has this:
Sodium channels are voltage-dependent proteins that can be activated by inducing membrane voltage changes by applying electric fields. […] The instrument comprises a microtiter plate handler, an optical system for exciting the coumarin dye while simultaneously recording the coumarin and oxonol emissions, a waveform generator, a current- or voltage-controlled amplifier, and a device for inserting electrodes in well. Under integrated computer control, this instrument passes user-programmed electrical stimulus protocols to cells within the wells of the microtiter plate.
24 hours before the assay on E-VIPR, HEK cells expressing human Nav1.8 were seeded in 384-well poly-lysine coated plates at 15,000-20,000 cells per well. […] Cells were grown in vented cap flasks, in 90% humidity and 5% CO2.
To make the solution added volume of 10% Pluronic F127 stock equal to volumes of CC2-DMPE+DiSBAC6(3). The order of preparation was first mixing Pluronic and CC2-DMPE, then adding DiSBAC6(3) while vortexing, then adding Bath1+β-Cyclodextrin.
1) Pre-spotted compounds (in neat DMSO) into compound plates. […] Final compound plate volume was 80 μL (80-fold intermediate dilution from 1 μL DMSO spot; 160-fold final dilution after transfer to cell plate).
2) Prepared Hexyl Dye Solution.
3) Prepared cell plates. On the day of the assay, medium was aspirated and cells were washed three times with 100 μL of Bath1 Solution, maintaining 25 μL residual volume in each well.
4) Dispensed 25 μL per well of Hexyl Dye Solution into cell plates. Incubated for 20-35 minutes at room temp or ambient conditions.
5) Dispensed 80 μL per well of Bath1 into compound plates. Acid Yellow-17 (1 mM) was added and Potassium Chloride was altered from 4.5 to 20 mM depending on the NaV subtype and assay sensitivity.
6) Washed cell plates three times with 100 μL per well of Bath1, leaving 25 μL of residual volume. Then transferred 25 uL per well from Compound Plates to Cell Plates. Incubated for 20-35 minutes at room temp/ambient condition.
7) Read Plate on E-VIPR. […] A pre-stimulus recording was performed for 0.5 seconds to obtain the un-stimulated intensities baseline. The stimulatory waveform was followed by 0.5 seconds of post-stimulation recording to examine the relaxation to the resting state.
Data was analyzed and reported as normalized ratios of emission intensities measured in the 460 nm and 580 nm channels. The response as a function of time was reported as the ratios obtained using the following formula: […]
The data was further reduced by calculating the initial (Ri) and final (Rf) ratios. These were the average ratio values during part or all of the pre-stimulation period, and during sample points during the stimulation period. The response to the stimulus R=Rf/Ri was then calculated and reported as a function of time.
Control responses were obtained by performing assays in the presence of a compound with the desired properties (positive control), such as tetracaine, and in the absence of pharmacological agents (negative control). Responses to the negative (N) and positive (P) controls were calculated as above. The compound antagonist activity A is defined as:
[formula] where R is the ratio response of the test compound
With “2-(4-fluorophenoxy)-N-(1-(2-hydroxyethyl)-2-oxo-1,2-dihydropyridin-4-yl)-4-(trifluoromethyl)benzamide [Compound 85]”, the pIC50 was 5.55.
With `O=C(Nc1cc[nH]c(=O)c1)c1ccccc1Oc1ccc(F)cc1` [Compound 1, 2-(4-fluorophenoxy)-N-(2-oxo-1,2-dihydropyridin-4-yl)benzamide], the negative-log IC50 (pIC50) was 5.96.
`O=C(Nc1ccc(=O)[nH]c1)c1ccccc1Oc1ccc(F)cc1` [Compound 3, 2-(4-fluorophenoxy)-N-(6-oxo-1,6-dihydropyridin-3-yl)benzamide] had a pIC50 of 4.87. This pIC50 is 1.09 log units lower than that of the compound before.
For `O=C(Nc1ccc(=O)[nH]c1)c1cc(C(F)(F)F)ccc1Oc1ccc(F)cc1` [Compound 4, 2-(4-fluorophenoxy)-N-(6-oxo-1,6-dihydropyridin-3-yl)-5-(trifluoromethyl)benzamide], the pIC50 is 6.46.
Next, `O=C(Nc1cc[nH]c(=O)c1)c1ccc(C(F)(F)F)cc1Oc1ccc(F)cc1` [Compound 5, 2-(4-fluorophenoxy)-N-(2-oxo-1,2-dihydropyridin-4-yl)-4-(trifluoromethyl)benzamide]: 7.41; `O=C(Nc1ccc(=O)[nH]c1)c1ccc(C(F)(F)F)cc1Oc1ccc(F)cc1` [Compound 6, 2-(4-fluorophenoxy)-N-(6-oxo-1,6-dihydropyridin-3-yl)-4-(trifluoromethyl)benzamide]: 6.61.
In the case of `O=C(Nc1cc[nH]c(=O)c1)c1ccc(C(F)(F)F)cc1Oc1ccccc1` [Compound 9, N-(2-oxo-1,2-dihydropyridin-4-yl)-2-phenoxy-4-(trifluoromethyl)benzamide], the negative-log IC50 (pIC50) is 7.03.
In turn, `Cc1ccccc1Oc1cc(C(F)(F)F)ccc1C(=O)Nc1cc[nH]c(=O)c1` [Compound 11, N-(2-oxo-1,2-dihydropyridin-4-yl)-2-(o-tolyloxy)-4-(trifluoromethyl)benzamide] gave a pIC50 of 7.25.
`Cc1ccc(Oc2cc(C(F)(F)F)ccc2C(=O)Nc2cc[nH]c(=O)c2)cc1` [Compound 12, N-(2-oxo-1,2-dihydropyridin-4-yl)-2-(p-tolyloxy)-4-(trifluoromethyl)benzamide] had a pIC50 of 6.97.
Next, `O=C(Nc1cc[nH]c(=O)c1)c1ccc(Cl)cc1Oc1ccc(F)cc1F` [Compound 13, 4-chloro-2-(2,4-difluorophenoxy)-N-(2-oxo-1,2-dihydropyridin-4-yl)benzamide]: 6.97; `O=C(Nc1cc[nH]c(=O)c1)c1ccc(Cl)cc1Oc1ccc(F)cc1Cl` [Compound 14, 4-chloro-2-(2-chloro-4-fluorophenoxy)-N-(2-oxo-1,2-dihydropyridin-4-yl)benzamide]: 7.19.
The compound `COc1cc(F)ccc1Oc1cc(Cl)ccc1C(=O)Nc1cc[nH]c(=O)c1` [Compound 16, 4-chloro-2-(4-fluoro-2-methoxyphenoxy)-N-(2-oxo-1,2-dihydropyridin-4-yl)benzamide] had a pIC50 of 7.85. This pIC50 lies 0.66 log units higher than the previous one.
`Cc1cccc(F)c1Oc1cc(Cl)ccc1C(=O)Nc1cc[nH]c(=O)c1` [Compound 17, 4-chloro-2-(2-fluoro-6-methylphenoxy)-N-(2-oxo-1,2-dihydropyridin-4-yl)benzamide] showed a pIC50 of 5.74.
For `O=C(Nc1cc[nH]c(=O)c1)c1ccc(Cl)cc1Oc1c(F)cccc1Cl` [Compound 18, 4-chloro-2-(2-chloro-6-fluorophenoxy)-N-(2-oxo-1,2-dihydropyridin-4-yl)benzamide], the pIC50 was 4.92.
Next, `O=C(Nc1cc[nH]c(=O)c1)c1ccc(Cl)cc1Oc1c(F)cccc1F` [Compound 19, 4-chloro-2-(2,6-difluorophenoxy)-N-(2-oxo-1,2-dihydropyridin-4-yl)benzamide]: 5.22; `N#Cc1ccc(C(=O)Nc2cc[nH]c(=O)c2)c(Oc2ccc(F)cc2)c1` [Compound 21, 4-cyano-2-(4-fluorophenoxy)-N-(2-oxo-1,2-dihydropyridin-4-yl)benzamide]: 6.07; `COc1cc(F)ccc1Oc1cc(C#N)ccc1C(=O)Nc1cc[nH]c(=O)c1` [Compound 22, 4-cyano-2-(4-fluoro-2-methoxyphenoxy)-N-(2-oxo-1,2-dihydropyridin-4-yl)benzamide]: 7.00.
Take `Cc1cc(F)ccc1Oc1cc(C#N)ccc1C(=O)Nc1cc[nH]c(=O)c1` [Compound 23, 4-cyano-2-(4-fluoro-2-methylphenoxy)-N-(2-oxo-1,2-dihydropyridin-4-yl)benzamide]: the pIC50 is 5.82.
As for `O=C(Nc1cc[nH]c(=O)c1)c1cc(C(F)(F)F)ccc1Oc1ccc(F)cc1F` [Compound 24, 2-(2,4-difluorophenoxy)-N-(2-oxo-1,2-dihydropyridin-4-yl)-5-(trifluoromethyl)benzamide], the pIC50 is 7.24.
With `N#Cc1ccc(Oc2ccc(C(F)(F)F)cc2C(=O)Nc2cc[nH]c(=O)c2)cc1` [Compound 25, 2-(4-cyanophenoxy)-N-(2-oxo-1,2-dihydropyridin-4-yl)-5-(trifluoromethyl)benzamide], the negative logarithm of the IC50 (pIC50) is 5.96.
As to `O=C(Nc1cc[nH]c(=O)c1)c1cc(C(F)(F)F)ccc1Oc1c(F)cccc1F` [Compound 26, 2-(2,6-difluorophenoxy)-N-(2-oxo-1,2-dihydropyridin-4-yl)-5-(trifluoromethyl)benzamide], the pIC50 was 5.02.
Next, `Cc1ccc(Oc2ccc(C(F)(F)F)cc2C(=O)Nc2cc[nH]c(=O)c2)cc1` [Compound 27, N-(2-oxo-1,2-dihydropyridin-4-yl)-2-(p-tolyloxy)-5-(trifluoromethyl)benzamide]: 6.47.
`O=C(Nc1cc[nH]c(=O)c1)c1cc(C(F)(F)F)ccc1Oc1ccccc1` [Compound 32, N-(2-oxo-1,2-dihydropyridin-4-yl)-2-phenoxy-5-(trifluoromethyl)benzamide] gave a pIC50 of 6.69.
In the case of `O=C(Nc1cc[nH]c(=O)c1)c1cc(OC(F)(F)F)ccc1Oc1c(F)cccc1F` [Compound 34, 2-(2,6-difluorophenoxy)-N-(2-oxo-1,2-dihydropyridin-4-yl)-5-(trifluoromethoxy)benzamide], the pIC50 was 4.92. Against the preceding compound, the pIC50 is 1.77 log units lower.
In turn, `Cc1ccc(Oc2ccc(OC(F)(F)F)cc2C(=O)Nc2cc[nH]c(=O)c2)cc1` [Compound 35, N-(2-oxo-1,2-dihydropyridin-4-yl)-2-(p-tolyloxy)-5-(trifluoromethoxy)benzamide] had a pIC50 of 6.33.
Turning to `Cc1ccccc1Oc1ccc(OC(F)(F)F)cc1C(=O)Nc1cc[nH]c(=O)c1` [Compound 36, N-(2-oxo-1,2-dihydropyridin-4-yl)-2-(o-tolyloxy)-5-(trifluoromethoxy)benzamide], the pIC50 is 7.00.
`O=C(Nc1cc[nH]c(=O)c1)c1cc(OC(F)(F)F)ccc1Oc1ccc(F)cc1` [Compound 38, 2-(4-fluorophenoxy)-N-(2-oxo-1,2-dihydropyridin-4-yl)-5-(trifluoromethoxy)benzamide]: the pIC50 is 7.16.
`Cc1cccc(F)c1Oc1ccc(OC(F)(F)F)cc1C(=O)Nc1cc[nH]c(=O)c1` [Compound 39, 2-(2-fluoro-6-methylphenoxy)-N-(2-oxo-1,2-dihydropyridin-4-yl)-5-(trifluoromethoxy)benzamide] showed a pIC50 of 6.16. This pIC50 lies 1.00 log units lower than the previous one.
In the case of `Cc1cc(F)ccc1Oc1ccc(OC(F)(F)F)cc1C(=O)Nc1cc[nH]c(=O)c1` [Compound 40, 2-(4-fluoro-2-methylphenoxy)-N-(2-oxo-1,2-dihydropyridin-4-yl)-5-(trifluoromethoxy)benzamide], the pIC50 is 7.40.
On to `O=C(Nc1cc[nH]c(=O)c1)c1cc(OC(F)(F)F)ccc1Oc1ccccc1` [Compound 41, N-(2-oxo-1,2-dihydropyridin-4-yl)-2-phenoxy-5-(trifluoromethoxy)benzamide], for which the pIC50 is 6.59. This pIC50 is 0.81 log units lower than that of the compound before.
Compound `COc1cc(F)ccc1Oc1ccc(OC(F)(F)F)cc1C(=O)Nc1cc[nH]c(=O)c1` [Compound 42, 2-(4-fluoro-2-methoxyphenoxy)-N-(2-oxo-1,2-dihydropyridin-4-yl)-5-(trifluoromethoxy)benzamide] gave a pIC50 of 7.17. This pIC50 is 0.58 log units higher than that of the compound before.
Next, `O=C(Nc1cc[nH]c(=O)c1)c1c(Oc2ccc(F)cc2)cccc1C(F)(F)F` [Compound 43, 2-(4-fluorophenoxy)-N-(2-oxo-1,2-dihydropyridin-4-yl)-6-(trifluoromethyl)benzamide]: 6.42.

The pIC50 is the IC50 on a negative log10 scale, so that one unit is a factor of ten. A lower pIC50 goes with a large IC50.
